Data as given in ChEMBL document CHEMBL4014279, “Synthesis of novel pyrazolo[3,4-b]quinolinyl acetamide analogs, their evaluation for antimicrobial and anticancer activities, validation by molecular modeling and CoMFA analysis” (Eur J Med Chem, 2017).
In brackets after ≈: the same amount, converted by molar mass. Activity calls are given as the source filed them. The calls are words filed in the database; no cut-off is given here.

Tests used:
[1] = tested on: Raoultella planticola; assay: Antibacterial activity against Klebsiella planticola MTCC 530 after 24 hrs by well diffusion method; assay type: functional; conditions: MTCC 530, 24 h
[2] = tested on: HepG2; assay: Cytotoxicity against human HepG2 cells at >100 uM after 24 hrs by MTT assay; assay type: functional, cell-based
[3] = tested on: Pseudomonas aeruginosa; assay: Antibacterial activity against Pseudomonas aeruginosa MTCC 2453 after 24 hrs by well diffusion method; assay type: functional; conditions: MTCC 2453, 24 h
[4] = tested on: Staphylococcus aureus; assay: Antibacterial activity against Staphylococcus aureus MTCC 96 after 24 hrs by well diffusion method; assay type: functional; conditions: MTCC 96, 24 h
[5] = tested on: Staphylococcus aureus; assay: Antibacterial activity against Staphylococcus aureus MLS16 MTCC 2940 after 24 hrs by well diffusion method; assay type: functional; conditions: MLS16 MTCC 2940, 24 h
[6] = tested on: HeLa; assay: Cytotoxicity against human HeLa cells at >100 uM after 24 hrs by MTT assay; assay type: functional, cell-based
[7] = tested on: Bacillus subtilis; assay: Antibacterial activity against Bacillus subtilis MTCC 121 after 24 hrs by well diffusion method; assay type: functional; conditions: MTCC 121, 24 h
[8] = tested on: Escherichia coli; assay: Antibacterial activity against Escherichia coli MTCC 739 after 24 hrs by well diffusion method; assay type: functional; conditions: MTCC 739, 24 h
[9] = tested on: A549; assay: Cytotoxicity against human A549 cells at >100 uM after 24 hrs by MTT assay; assay type: functional, cell-based
[10] = tested on: COLO 205; assay: Cytotoxicity against human COLO205 cells at >100 uM after 24 hrs by MTT assay; assay type: functional, cell-based
[11] = tested on: Micrococcus luteus; assay: Antibacterial activity against Micrococcus luteus MTCC 2470 after 24 hrs by well diffusion method; assay type: functional; conditions: MTCC 2470, 24 h
[12] = tested on: Candida albicans; assay: Antibiofilm activity against Candida albicans MTCC 4748 after 24 hrs by crystal violet staining based method; assay type: functional; conditions: MTCC 4748, 24 h
[13] = tested on: Candida albicans; assay: Antifungal activity against Candida albicans MTCC 854 after 24 hrs by well diffusion method; assay type: functional; conditions: MTCC 854, 24 h
[14] = tested on: Candida parapsilosis; assay: Antifungal activity against Candida parapsilosis MTCC 1744 after 24 hrs by well diffusion method; assay type: functional; conditions: MTCC 1744, 24 h
[15] = tested on: Candida albicans; assay: Antifungal activity against Candida albicans MTCC 227 after 24 hrs by well diffusion method; assay type: functional; conditions: MTCC 227, 24 h
[16] = tested on: Candida albicans; assay: Antifungal activity against Candida albicans MTCC 3018 after 24 hrs by well diffusion method; assay type: functional; conditions: MTCC 3018, 24 h
[17] = tested on: Pichia kudriavzevii; assay: Antifungal activity against Candida krusei MTCC 3020 after 24 hrs by well diffusion method; assay type: functional; conditions: MTCC 3020, 24 h
[18] = tested on: Candida albicans; assay: Antifungal activity against Candida albicans MTCC 3958 after 24 hrs by well diffusion method; assay type: functional; conditions: MTCC 3958, 24 h
[19] = tested on: Candida albicans; assay: Antifungal activity against Candida albicans MTCC 3017 after 24 hrs by well diffusion method; assay type: functional; conditions: MTCC 3017, 24 h
[20] = tested on: Candida albicans; assay: Antifungal activity against Candida albicans MTCC 1637 after 24 hrs by well diffusion method; assay type: functional; conditions: MTCC 1637, 24 h
[21] = tested on: Candida albicans; assay: Antifungal activity against Candida albicans MTCC 4748 after 24 hrs by well diffusion method; assay type: functional; conditions: MTCC 4748, 24 h
[22] = tested on: Nakaseomyces glabratus; assay: Antifungal activity against Candida glabrata MTCC 3019 after 24 hrs by well diffusion method; assay type: functional; conditions: MTCC 3019, 24 h
[23] = tested on: Candida albicans; assay: Antifungal activity against Candida albicans MTCC 183 after 24 hrs by well diffusion method; assay type: functional; conditions: MTCC 183, 24 h
[24] = tested on: Pichia sporocuriosa; assay: Antifungal activity against Issatchenkia hanoiensis MTCC 4755 after 24 hrs by well diffusion method; assay type: functional; conditions: MTCC 4755, 24 h
[25] = tested on: Candida albicans; assay: Antifungal activity against Candida albicans MTCC 7315 after 24 hrs by well diffusion method; assay type: functional; conditions: MTCC 7315, 24 h
[26] = tested on: [Candida] aaseri; assay: Antifungal activity against Candida aaseri MTCC 1962 after 24 hrs by well diffusion method; assay type: functional; conditions: Yamadazyma aaseri, MTCC 1962, 24 h
[27] = tested on: Staphylococcus aureus; assay: Induction of intracellular ROS accumulation in Staphylococcus aureus MLS16 MTCC 2940 sessile biofilm cells assessed as fluorescence intensity at 3 ug/ml after 24 hrs by DCFH-DA staining-based fluorescence assay (reference value: 62 +/- 9.8 a.u.); assay type: functional
[28] = tested on: Staphylococcus aureus; assay: Induction of intracellular ROS accumulation in Staphylococcus aureus MLS16 MTCC 2940 sessile biofilm cells assessed as fluorescence intensity at 2 ug/ml after 24 hrs by DCFH-DA staining-based fluorescence assay (reference value: 62 +/- 9.8 a.u.); assay type: functional
[29] = tested on: Escherichia coli; assay: Antibiofilm activity against Escherichia coli MTCC 739 after 24 hrs by crystal violet staining based method; assay type: functional; conditions: MTCC 739, 24 h
[30] = tested on: Staphylococcus aureus; assay: Induction of intracellular ROS accumulation in Staphylococcus aureus MLS16 MTCC 2940 sessile biofilm cells assessed as fluorescence intensity at 1 ug/ml after 24 hrs by DCFH-DA staining-based fluorescence assay (reference value: 62 +/- 9.8 a.u.); assay type: functional
[31] = tested on: Bacillus subtilis; assay: Antibiofilm activity against Bacillus subtilis MTCC 121 after 24 hrs by crystal violet staining based method; assay type: functional; conditions: MTCC 121, 24 h
[32] = tested on: Staphylococcus aureus; assay: Induction of intracellular ROS accumulation in Staphylococcus aureus MLS16 MTCC 2940 sessile biofilm cells assessed as fluorescence intensity at 4 ug/ml after 24 hrs by DCFH-DA staining-based fluorescence assay (reference value: 62 +/- 9.8 a.u.); assay type: functional
[33] = tested on: HepG2; assay: Cytotoxicity against human HepG2 cells after 24 hrs by MTT assay; assay type: functional, cell-based; conditions: HepG2, 24 h
[34] = tested on: COLO 205; assay: Cytotoxicity against human COLO205 cells after 24 hrs by MTT assay; assay type: functional, cell-based; conditions: COLO 205, 24 h
[35] = tested on: A549; assay: Cytotoxicity against human A549 cells after 24 hrs by MTT assay; assay type: functional, cell-based; conditions: A549, 24 h
[36] = tested on: HeLa; assay: Cytotoxicity against human HeLa cells after 24 hrs by MTT assay; assay type: functional, cell-based

Row | SMILES | MIC [1] [µg/mL] | MIC [3] [µg/mL] | MIC [4] [µg/mL] | MIC [5] [µg/mL] | MIC [7] [µg/mL] | MIC [8] [µg/mL] | MIC [11] [µg/mL] | MIC [13] [µg/mL] | MIC [14] [µg/mL] | MIC [15] [µg/mL] | MIC [16] [µg/mL] | MIC [17] [µg/mL] | MIC [18] [µg/mL] | MIC [19] [µg/mL] | MIC [20] [µg/mL] | MIC [21] [µg/mL] | MIC [22] [µg/mL] | MIC [23] [µg/mL] | MIC [24] [µg/mL] | MIC [25] [µg/mL] | other results
1 | O=C(Cn1nc(C(F)(F)F)c2c(-c3ccccc3)c3ccccc3nc21)N1CCN(CCO)CC1 | 7.8 to 125 (≈ 16.1 to 259 µM) | 7.8 to 125 (≈ 16.1 to 259 µM) | 7.8 to 125 (≈ 16.1 to 259 µM) | 7.8 to 125 (≈ 16.1 to 259 µM) | 7.8 to 125 (≈ 16.1 to 259 µM) | 7.8 to 125 (≈ 16.1 to 259 µM) | 7.8 to 125 (≈ 16.1 to 259 µM) | – | – | – | – | – | – | – | – | – | – | – | – | – | Activity [2]: inactive; Activity [6]: inactive; Activity [9]: inactive; Activity [10]: inactive
2 | Clc1ccc(COC(Cn2ccnc2)c2ccc(Cl)cc2Cl)c(Cl)c1 (centres undefined) [MICONAZOLE] | – | – | – | – | – | – | – | 7.8 (≈ 18.7 µM) | 7.8 (≈ 18.7 µM) | 7.8 (≈ 18.7 µM) | 7.8 (≈ 18.7 µM) | 7.8 (≈ 18.7 µM) | 7.8 (≈ 18.7 µM) | 7.8 (≈ 18.7 µM) | 7.8 (≈ 18.7 µM) | 7.8 (≈ 18.7 µM) | 7.8 (≈ 18.7 µM) | 7.8 (≈ 18.7 µM) | 7.8 (≈ 18.7 µM) | 7.8 (≈ 18.7 µM) | IC50 [12]: 2.6 µM; MIC [26]: 7.8 µg/mL (≈ 18.7 µM)
3 | O=C(O)c1cn(C2CC2)c2cc(N3CCNCC3)c(F)cc2c1=O [CIPROFLOXACIN] | 0.9 (≈ 2.72 µM) | 0.9 (≈ 2.72 µM) | 0.9 (≈ 2.72 µM) | 0.9 (≈ 2.72 µM) | 0.9 (≈ 2.72 µM) | 0.9 (≈ 2.72 µM) | 0.9 (≈ 2.72 µM) | – | – | – | – | – | – | – | – | – | – | – | – | – | Flu intensity [27]: 1952 a.u.; Flu intensity [28]: 925 a.u.; IC50 [29]: 0.8 µM; Flu intensity [30]: 601 a.u.; IC50 [31]: 0.6 µM; Flu intensity [32]: 2010 a.u.
4 | COc1ccc(NC(=O)Cn2nc(C(F)(F)F)c3c(-c4ccccc4)c4ccccc4nc32)cc1 | 7.8 (≈ 16.4 µM) | > 125 | 31.2 (≈ 65.5 µM) | 62.5 (≈ 131 µM) | 62.5 (≈ 131 µM) | 62.5 (≈ 131 µM) | 7.8 (≈ 16.4 µM) | 31.2 (≈ 65.5 µM) | 31.2 (≈ 65.5 µM) | 31.2 (≈ 65.5 µM) | 62.5 (≈ 131 µM) | 62.5 (≈ 131 µM) | 31.2 (≈ 65.5 µM) | 31.2 (≈ 65.5 µM) | 62.5 (≈ 131 µM) | 62.6 (≈ 131 µM) | 31.2 (≈ 65.5 µM) | 62.5 (≈ 131 µM) | 31.2 (≈ 65.5 µM) | 31.2 (≈ 65.5 µM) | IC50 [33]: 20.4 µM; IC50 [34]: 19.6 µM; IC50 [35]: 18.2 µM; IC50 [36]: 22.2 µM; MIC [26]: 62.5 µg/mL (≈ 131 µM)
